# Results as given in patent US20100048732A1, “Method of mediating Airway Smooth Muscle Construction Due to Airway Irritation” (priority 2006, published 2010).
# Starred links: 1 amine or outer side, 2 acyl side, 3 side chain; linkers in the order of their positions; H or OH if unused. Positions of bridges follow the written chain, without caps; N, C: chain ends. Non-standard residues stand in square brackets, D forms with d. Residues, ends and D or L forms follow the SMILES beside them. No end group written: not given here. *: point of attachment. X2 = CN(/C(=C\c1ccc(O)cc1)C(=O)[*:2])[*:1]; X1 = CCCCCc1ccccc1CCC(=O)*
# Columns and labels:
# [1] = tested on: bradykinin induced bronchoconstriction; conditions: asthmatics; cited from earlier work
# GABAA receptors = conditions: FIG. 10
# Description: (§1) (FIG. 9.) To determine if the mechanism of propofol's relaxation of a tachykinin response was mediated by GABAA receptors, the ability of an antagonist of GABAA receptors should inhibit propofol's response was evaluated. […] (FIG. 10.)
# [2] = tested on: NANC contractions, epithelium-denuded guinea pig tracheal rings; assay: Relaxation of NANC (C fiber, neurally liberated tachykinin) contractions in guinea pig tracheal rings; format: cell-based; conditions: clinically relevant concentrations, FIG. 2, FIG. 3A-B
# Description: (§2) Substance P is an endogenous tachykinin released in airways by C fibers during irritation of the airway.
# (§3) Propofol is known to have preferential protective airway effects during intubation compared to other intravenous anesthetics (3, 4). To determine if two other commonly used intravenous anesthetics have similar protective airway effects on contractile challenges, etomidate and ketamine were evaluated to determine their ability to relax airway smooth muscle contraction induced by NANC nerve stimulation (FIGS. 3A and B), cholinergic nerve stimulation (FIGS. 3C and D), and exogenous addition of substance P (FIGS. 3E and F) to isolated guinea pig tracheal rings in organ baths.
# [3] = tested on: cholinergic nerve mediated contractions, guinea pig tracheal rings; assay: Relaxation of cholinergic nerve mediated contractions in guinea pig tracheal rings; format: cell-based; conditions: clinically relevant concentrations, FIG. 1, FIG. 3C-D
# Description: To distinguish between the two possibilities, intravenous anesthetics were evaluated for their effects on attenuating bronchoconstriction induced by activation of the cholinergic nerves (liberating acetylcholine). […] (FIG. 1.)
# as §3
# [4] = tested on: substance P contraction, guinea pig tracheal rings; assay: Relaxation of substance P-induced contraction in guinea pig tracheal rings; format: cell-based; conditions: FIG. 2, FIG. 3E-F, FIG. 8
# Description: as §2, §3
# Propofol's effect as an anesthetic is modulated by an allosteric potentiation of GABA at GABAA receptors in the brain. However, we are unaware of any report that GABAA receptors have been found on airway smooth muscle.
# guinea pig airway rings = conditions: cited from earlier work
# [5] = tested on: substance P contraction, human tracheal rings; assay: Substance P contraction of human tracheal rings in organ baths and its relaxation; format: cell-based; conditions: human tracheal rings in organ baths; for relaxation of substance P contraction in human tracheal rings: cumulative concentrations, FIG. 5, FIG. 9
# Description: as §1
# [6] = tested on: acetylcholine-induced contractions, isolated rings of guinea pig trachea; conditions: isolated guinea pig tracheal rings; clinically significant/relevant concentrations; FIG. 1
# Description: Intravenous anesthetics were compared for their ability to relax airway smooth muscle contractions in isolated rings of guinea pig trachea in response to acetylcholine.
# [7] = tested on: methacholine induced bronchoconstriction; conditions: sheep; delivery via the bronchial artery; cited from earlier work
# [8] = tested on: L-type calcium channels, intracellular calcium changes, inositol phosphate synthesis in airway smooth muscle; conditions: above clinically achieved concentrations; cited from earlier work
# [9] = tested on: NK2-induced contraction, guinea pig tracheal rings; conditions: guinea pig tracheal rings stimulated with neurokinin A; FIG. 6B
# Text: (§4) Guinea pig tracheal rings stimulated with acetyl-substance P to produce an NK1-induced contraction (FIG. 6A) and with neurokinin A to produce an NK2-induced contraction (FIG. 6B).
# [10] = tested on: NK1-induced contraction, guinea pig tracheal rings; conditions: guinea pig tracheal rings stimulated with acetyl-substance P; FIG. 6A
# Text: as §4
# [11] = tested on: contractile responses from acetylcholine, histamine, and endothelin in airway tissues; conditions: airway tissues from humans and animal models; cited from earlier work
# [12] = tested on: methacholine, histamine-induced (neural component) or vagal nerve-induced bronchoconstriction; conditions: neural component of histamine-induced, or vagal nerve-induced bronchoconstriction; cited from earlier work
# [13] = tested on: permeabilized canine tracheal smooth muscle cells; conditions: absence or presence of muscarinic receptor activation, propofol 270 μM; cited from earlier work
# [14] = tested on: vagal nerve induced bronchospasm; conditions: sheep; delivery via the bronchial artery; cited from earlier work
# [15] = tested on: endothelin-1 induced contractions, guinea pig tracheal rings; conditions: within clinically relevant concentrations, FIG. 4
# Description: (§5) To determine if propofol and thiopental have the ability to relax histamine or endothelial induced contractions, propofol and thiopental were evaluated at clinical and supra-clinical concentrations to determine their ability to relax histamine or endothelin-1 induced contractions in guinea pig tracheal rings.
# [16] = tested on: histamine induced contractions, guinea pig tracheal rings; conditions: within clinically relevant concentrations, FIG. 4
# Description: as §5
compound,measurement,setting,value
CCCCCc1ccccc1CCC(=O)NC1C(=O)N(C)/C(=C\c2ccc(O)cc2)C(=O)NC(CC(C)C)C(=O)NC(Cc2ccccc2)C(=O)NC(C(C)O)C(=O)NC(CC(N)=O)C(=O)NC(CO)C(=O)OC1C (stereo not shown) [FK224] (X1-T[X2]LFTNS; ester 1-C; configuration not given here),effect on bradykinin induced bronchoconstriction,[1],attenuated bradykinin induced bronchoconstriction
COc1ccc(-c2ccc(=N)n(CCCC(=O)O)n2)cc1 [Gabazine],reversal of propofol mediated relaxation of a substance P contraction,GABAA receptors,able to reverse propofol mediated relaxation
CCOC(=O)c1cncn1[C@H](C)c1ccccc1 [etomidate],attenuation/relaxation of NANC contractions (neurally liberated tachykinins),[2],failed to relax
same,relaxation of cholinergic nerve mediated contractions,[3],failed to relax
same,attenuation/relaxation of substance P (exogenous tachykinin) contraction,[4],failed to relax
CNC1(c2ccccc2Cl)CCCCC1=O (stereo not shown) [ketamine],attenuation/relaxation of NANC contractions (neurally liberated tachykinins),[2],failed to relax
same,relaxation of cholinergic nerve mediated contractions,[3],failed to relax
same,attenuation/relaxation of substance P (exogenous tachykinin) contraction,[4],failed to relax
NCc1cc(=O)[nH]o1 [muscimol],effect on acetylcholine-induced contraction,guinea pig airway rings,failed to show an effect
same,effect on basal tone,guinea pig airway rings,failed to show an effect
same,relaxation of substance P contraction in human tracheal rings,[5],dose dependently relaxed
same,attenuation/relaxation of substance P (exogenous tachykinin) contraction,[4],dose-dependently relaxed
"CC(C)c1cccc(C(C)C)c1O [propofol, 2,6-diisopropylphenol]",relaxation of acetylcholine-induced contractions,[6],without effect
same,attenuation/relaxation of NANC contractions (neurally liberated tachykinins),[2],more effective than thiopental
same,propofol dose attenuating methacholine induced bronchoconstriction,[7],3 mg/min
same,relaxation of cholinergic nerve mediated contractions,[3],failed to relax
same,"propofol concentration needed for effects on L-type calcium channels, intracellular calcium or inositol phosphate signaling",[8],> 100 µM
same,relaxation of NK2-induced contraction,[9],significantly relaxed
same,relaxation of NK1-induced contraction,[10],much less effective
same,relaxation of substance P contraction in human tracheal rings,[5],dose-dependently relaxed
same,"propofol concentration attenuating contractile responses from acetylcholine, histamine, endothelin",[11],100 to 300 µM
same,propofol concentration attenuating bronchoconstriction in dogs,[12],20 mg/mL
same,calcium sensitivity,[13],not effected
same,propofol dose attenuating vagal nerve induced bronchospasm,[14],0.3 mg/min
same,relaxation of endothelin-1 induced contraction,[15],neither anesthetic effected the spontaneous relaxation
same,attenuation/relaxation of substance P (exogenous tachykinin) contraction,[4],more effective than thiopental
same,relaxation of histamine induced contraction,[16],neither anesthetic effected the spontaneous relaxation
CCCC(C)C1(CC)C(=O)NC(=S)NC1=O (stereo not shown) [thiopental],relaxation of acetylcholine-induced contractions,[6],dose-dependently relaxed
same,relaxation of endothelin-1 induced contraction,[15],neither anesthetic effected the spontaneous relaxation
same,relaxation of histamine induced contraction,[16],neither anesthetic effected the spontaneous relaxation
"Substance P (RPKPQQFFGLM-NH2; ends and bridges not checked; UniProt P20366 58-68, looked up) [endogenous tachykinin released in airways by C fibers during irritation of the airway]",contraction of human tracheal rings,[5]; FIG. 5,dose-dependently contracted
